One series has as its target T1, local TRPV1 receptors (Mus musculus, UniProt Q704Y3).
T1 construct: from tissue; host or cells: living mouse, hind leg (intraplantar capsaicin injection)
Kind of series: Pain induced by intraplantar administration of capsaicin to mice. The following applies: 10 mg/kg orally 120 minutes before intraplantar capsaicin, n=10. It is filed as in vivo. The protocol:
Pain induced by intraplantar administration of capsaicin to mice.
The intraplantar injection of capsaicin to mice rapidly produces short-lived nociceptive behaviour, which is reflected by licking, biting and flexing of the administered leg. These nociceptive responses are probably associated with the activation of the local TRPV1 receptors by the capsaicin.
(E)-Capsaicin is initially diluted to 3 mg/ml in DMSO, and then diluted again for its final use to 1.5 μg/20 μl in physiological saline. The administration of solvent has no effect on the behaviour of the mouse. The capsaicin is injected into the hind legs of the animal, on the upper face.
The test compounds are administered orally 120 minutes before the injection of capsaicin. Two hours after administration of the compounds, the mice are placed in a glass beaker. The nociceptive behaviour of the animals is then assessed immediately by the experimenter, and the duration of the capsaicin-induced behavioural manifestations is timed over a period of 2 minutes (licking and biting, total or partial flexure of the injected leg).
For each compound, an inhibition corresponding to the mean of the capsaicin-induced nociceptive responses, in response to a dose of test product (expressed in mg/kg) administered orally to a sample of a given number (n) of mice, is determined. […]

The next series concerns the target T2, TRPV1 receptor (Rattus norvegicus, UniProt O35433).
T2 construct: DRG neurones naturally express the TRPV1 receptor; endogenous in cells; host or cells: primary culture of newborn rat dorsal root ganglion neurones
Kind of series: Test of inhibition of the current induced with capsaicin on rat DRGs (whole-cell patch-clamp). The format is cell-based. The note with it: inhibition of control capsaicin response, newborn rat DRG neurones. The protocol: Test of inhibition of the current induced with capsaicin on rat DRGs • Primary culture of rat dorsal root ganglion (DRG) cells:
DRG neurones naturally express the TRPV1 receptor.
The primary cultures of newborn rat DRGs are prepared using 1-day-old rats. Briefly, after dissection, the ganglions are trypsinized and the cells dissociated by mechanical trituration. The cells are resuspended in an Eagle basal culture medium containing 10% foetal calf serum, 25 mM KCl, 2 mM glutamine, 100 μg/ml gentamicin and 50 ng/ml of NGF, and then deposited on glass slides coated with laminin (0.25×10^6 cells per slide), which are then placed in Corning 12-well dishes. The cells are incubated at 37° C. in a humidified atmosphere containing 5% CO2 and 95% air. […]
The measuring chambers (volume 800 μl) containing the cell preparation are placed on the platform of an inverted microscope (Olympus IMT2) equipped with Hoffman optics (Modulation Contrast, New York) and observed at a magnification of 400×. […] The overall currents (membrane potential set at −60 mV) are recorded with an Axopatch 1D amplifier (Axon Instruments, Foster City, Calif.), connected to a PC running the Pclamp8 software (Axon Instrument). The current plots are recorded on paper and simultaneously digitized (sampling frequency 15 to 25 Hz) and acquired on the hard drive of the PC. […]

The text below walks through data of patent US8354425B2, “Azabicyclic carboxamide derivatives, preparation thereof and therapeutic use thereof” (Sanofi, priority 2008, dated 2013).

In general, inhibition refers to the relative decrease from the control value, in per cent. Lower therefore signals a response near the control. The term melting point denotes the temperature, or range, at which the solid turns liquid.

T2 sequence (O35433 whole entry): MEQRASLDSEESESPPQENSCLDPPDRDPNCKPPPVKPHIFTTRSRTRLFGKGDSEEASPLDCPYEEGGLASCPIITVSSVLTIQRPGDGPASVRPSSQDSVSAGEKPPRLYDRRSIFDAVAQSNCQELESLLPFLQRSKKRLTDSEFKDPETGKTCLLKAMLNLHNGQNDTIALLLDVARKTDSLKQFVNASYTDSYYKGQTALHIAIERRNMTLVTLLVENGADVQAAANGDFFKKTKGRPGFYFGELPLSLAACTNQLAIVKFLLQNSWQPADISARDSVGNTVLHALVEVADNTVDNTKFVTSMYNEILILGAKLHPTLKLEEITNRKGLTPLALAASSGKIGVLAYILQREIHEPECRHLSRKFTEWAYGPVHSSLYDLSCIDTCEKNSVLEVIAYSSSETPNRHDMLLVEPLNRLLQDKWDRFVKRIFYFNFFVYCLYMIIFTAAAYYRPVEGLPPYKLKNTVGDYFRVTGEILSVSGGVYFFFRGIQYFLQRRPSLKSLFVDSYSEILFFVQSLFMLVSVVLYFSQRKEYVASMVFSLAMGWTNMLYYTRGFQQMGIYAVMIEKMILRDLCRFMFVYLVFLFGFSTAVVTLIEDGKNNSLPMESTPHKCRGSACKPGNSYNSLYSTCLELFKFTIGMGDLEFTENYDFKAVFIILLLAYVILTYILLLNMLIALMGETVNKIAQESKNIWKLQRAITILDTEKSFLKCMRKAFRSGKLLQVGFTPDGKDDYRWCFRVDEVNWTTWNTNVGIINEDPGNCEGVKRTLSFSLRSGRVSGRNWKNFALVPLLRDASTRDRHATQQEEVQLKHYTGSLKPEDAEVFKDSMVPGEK
T1 sequence (Q704Y3 whole entry): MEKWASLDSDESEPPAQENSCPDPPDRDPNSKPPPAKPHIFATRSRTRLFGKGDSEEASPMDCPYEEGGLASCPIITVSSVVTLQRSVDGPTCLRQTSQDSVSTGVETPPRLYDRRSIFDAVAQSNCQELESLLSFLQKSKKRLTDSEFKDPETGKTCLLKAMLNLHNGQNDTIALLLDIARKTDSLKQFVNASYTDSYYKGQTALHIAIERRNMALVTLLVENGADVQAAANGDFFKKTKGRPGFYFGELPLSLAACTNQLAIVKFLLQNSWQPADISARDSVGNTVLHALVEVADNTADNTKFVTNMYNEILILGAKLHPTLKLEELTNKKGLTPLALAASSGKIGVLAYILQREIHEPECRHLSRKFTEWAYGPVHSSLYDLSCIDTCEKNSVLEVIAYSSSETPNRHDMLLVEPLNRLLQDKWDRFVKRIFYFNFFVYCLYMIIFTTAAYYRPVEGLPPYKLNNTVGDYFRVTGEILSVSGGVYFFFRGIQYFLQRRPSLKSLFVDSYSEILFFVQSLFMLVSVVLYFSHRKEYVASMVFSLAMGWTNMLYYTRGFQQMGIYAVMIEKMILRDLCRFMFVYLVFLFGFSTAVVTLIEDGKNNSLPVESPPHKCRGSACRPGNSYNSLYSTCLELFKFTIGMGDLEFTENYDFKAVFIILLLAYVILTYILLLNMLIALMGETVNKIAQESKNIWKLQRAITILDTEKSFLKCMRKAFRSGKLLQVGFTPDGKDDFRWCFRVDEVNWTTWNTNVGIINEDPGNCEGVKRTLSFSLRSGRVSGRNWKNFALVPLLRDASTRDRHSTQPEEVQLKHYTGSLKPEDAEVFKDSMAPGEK

On to `O=C(Nc1cnc2[nH]ccc2c1)c1cc2cc(F)ccc2n1Cc1cccc(F)c1` [Compound 2, N-[1H-Pyrrolo[2,3-b]pyrid-5-yl]-5-fluoro-1-(3-fluorobenzyl)-1H-indole-2-carboxamide], for which the “% inhibition of the capsaicin-induced nociceptive responses” value at local TRPV1 receptors is 61% (±6%). This molecule also returned an inhibition at 0.001 µM against TRPV1 receptor (compound at 1 nM) of 82%.
As for `O=C(Nc1cc2cc[nH]c2cn1)c1cc2cc(F)ccc2n1Cc1cccc(F)c1` [Compound 8, N-(1H-Pyrrolo[2,3-c]pyrid-5-yl)-5-fluoro-1-[(3-fluorophenyl]methyl]-1H-indole-2-carboxamide], the melting point fell in the range of 203 to 204 °C. In addition, the inhibition at 0.1 µM against TRPV1 receptor (compound at 100 nM) was found to be 67.5%.
